The subject of data set [1] is 6-OHDA unilateral lesion model rats. Description: Forepaw adjusting steps (FAS) test, 6-OHDA induced akinesia. It counts as in vivo, rat. Particulars: for average percentage of adjusting steps (impaired paw to intact paw): L-DOPA 3 mg/kg with 15 mg/kg benserazide s.c. 60 min pretest.
Data set [2] has as its system unilaterally 6-OHDA-lesioned rats. Nature of the data set: L-DOPA induced AIMs and drugs screening test in the 6-OHDA rat model. It counts as in vivo. Particulars: for L-DOPA-induced dyskinesia (AIMs): Example XIII; for L-DOPA induced AIMs (Lim+Ax+OI): Example X, FIG. 5. The protocol: 6-OHDA (6-hydroxydopamine) is a neurotoxin that selectively kills dopaminergic and noradrenergic neurons and induces a reduction of dopamine levels in the brain. Administration of L-DOPA to unilaterally 6-OHDA-lesioned rats induces abnormal involuntary movements (ATMs). These are axial, limb and oral movements that occur only on the body side that is […] to the lesion.
DA-denervating lesions are performed by unilateral injection of 6-OHDA in the ascending nigrostriatal pathway. Rats were anesthetized with pentobarbital sodium 40 mg/kg (i.p.) and positioned in a stereotactic frame. 6-OHDA is injected into the right ascending DA bundle at the following coordinates (in mm) relative to bregma and dural surface: (1) toothbar position −2.3, A=−4.4, L=1.2, V=7.8, (7.5 ug 6-OHDA), (2) toothbar position +3.4, A=−4.0, L=0.8, V=8.0 mm (6 ug 6-OHDA). The neurotoxin injections are performed at a rate of 1 ul/min, and the injection cannula is left in place for an additional 2-3 min thereafter. Two weeks after surgery rats with nearly complete (>90%) lesions are selected by means of an amphetamine-induced rotation test. The animals are placed in plastic Perspex bowls (30 cm in diameter) and the rotational behavior (360° turns) is recorded by an automated rotometer for 90 min after the i.p. injection of 2.5 mg/kg d-amphetamine sulphate. […] Animals are then allocated into two well-matched sub-groups (according to the amphetamine rotation) and receive daily treatment as described below.
L-DOPA methyl ester (Sigma-Aldrich, Germany) is given at the dose of 6 mg/kg, combined with 15 mg/kg of benserazide HCl (Sigma-Aldrich, Germany). […] The selected rats are allocated groups of 9-12 animals each, which are balanced with the respect to AIM severity. The animals are then treated with the drug and drug combinations as described below.
AIMs ratings are performed by an investigator who was kept unaware of the pharmacological treatment administered to each rat (experimentally blinded). […] The AIM's are classified into four subtypes:
(A) axial AIMs, i.e., dystonic or choreiform torsion of the trunk and neck towards the side contralateral to the lesion. In the mild cases: lateral flexion of the neck or torsional movements of the upper trunk towards the side contralateral to the lesion. With repeated injection of L-DOPA, this movement may develop into a pronounced and continuous dystonia-like axial torsion. (B) limb AIMs, i.e., jerky and/or dystonic movements of the forelimb contralateral to the lesion. In mild cases: hyperkinetic, jerky stepping movements of the forelimb contralateral to the lesion, or small circular movements of the forelimb to and from the snout. As the severity of dyskinesia increases (which usually occurs with repeated administration of L-DOPA), the abnormal movements increase in amplitude, and assume mixed dystonic and hyperkinetic features. Dystonic movements are caused by sustained co-contraction of agonist/antagonist muscles; they are slow and force a body segment into unnatural positions. Hyperkinetic movements are fast and irregular in speed and direction. […] (C) orolingual AIMs, i.e., twitching of orofacial muscles, and bursts of empty masticatory movements with protrusion of the tongue towards the side contralateral to the lesion. This form of dyskinesia affects facial, tongue, and masticatory muscles. It is recognizable as bursts of empty masticatory movements, accompanied to a variable degree by jaw opening, lateral translocations of the jaw, twitching of facial muscles, and protrusion of the tongue towards the side contralateral to the lesion. […] Each of the four subtypes are scored on a severity scale from 0 to 4, where 0=absent, 1=present during less than half of the observation time, 2=present for more than half of the observation time, 3=present all the time but suppressible by external stimuli, and 4=present all the time and not suppressible by external stimuli.

Data set [3] deals with Parkinson's disease. Particulars: cited from earlier work.
Data set [4] concerns Sprague-Dawley (SD) rats. Nature of the data set: Rotarod test (Example V). In kind it is in vivo, rat. The following applies: pentobarbital 15 mg/kg i.p. 30 min before test, positive control; FIG. 2. The method, then:
In brief, the animals (30 SD male rats (180-220 g, bred in house, originally from SLAC Laboratory Animal Co. Ltd) at 9-week of age) were trained twice a day for a 3-day period. […] Each training trial was ended if the animal fell off or grips the device and spun around for two consecutive revolutions. The time that rat stayed on the Rotarod was recorded. The staying duration recorded at last training trail was used as baseline. Rats were grouped according a randomly distribution of baseline.
For the test session on the fourth day, the rats were evaluated on the Rotarod with the same setting as above at 30 min after dosing. The rats were dosed with drugs as described below. Dosing and Rotarod measurement were conducted by two scientists separately. Pentobarbital (15 mg/kg. i.p.) was used a as a positive control.
Vehicle: Saline, i.p., 30 min before test, n=10 Positive control: Pentobarbital 15 mg/kg, i.p. 30 min before test, n=10
The data were analyzed using One-Way ANOVA and the Tukey post-hoc test.

In data set [5] the test system is naïve rats. Description: Open field test (Example VI). In kind it is in vivo, rat. Particulars: pentobarbital 15 mg/kg i.p. 30 min before test, positive control; FIG. 3. The method, then: The open field test was used to determine the effects of drug on locomotor activity. Rats were put in open-field chambers (dimensions 40 cm×40 cm×40 cm) 30 minutes after dosing. After a 15 minutes habituation, locomotion were recorded and analysed by Enthovision Video Tracking Software (Noldus Information Technology, Netherlands) for 60 minutes. All locomotor activities were done during dark phase and to eliminate olfactory cues, the arena was thoroughly cleaned with 70% v/v ethanol between each test.
Group setting for compound tests: Vehicle: Saline, i.p., 30 min before test, n=10 Positive control: Pentobarbital 15 mg/kg, i.p. 30 min before test, n=10
Zolmitriptan 3 mg/kg, i.p. 5 min before buspirone Buspirone 1 mg/kg, i.p. 30 min before test, n=10
Statistical analysis: The total locomotor activity is expressed as total moved distance (cm) and average velocity (cm/s) during 60 minutes. The data were analysed using One-Way ANOVA and the Tukey post-hoc test. The locomotor activity in six time point is expressed as moved distance (cm) and average velocity (cm/s) every 10 minutes. The data were analysed using One-Way ANOVA and the Tukey post-hoc test in each time point.

Data set [6] deals with Huntington's disease. The following applies: one patient suffering from Huntington's disease; cited from earlier work.
Data set [7] relates to LID. The following applies: cited from earlier work.

The source of these data is patent US20140221385A1, “COMBINATIONS OF SEROTONIN RECEPTOR AGONISTS FOR TREATMENT OF MOVEMENT DISORDERS” (CONCIT PHARMA APS, priority 2011, published 2014).

Turning to `N[C@@H](Cc1ccc(O)c(O)c1)C(=O)O` [L-DOPA, 3,4-dihydroxyphenylalanine], the “average percentage of adjusting steps (impaired paw to intact paw)” value in data set [1] (first study) is listed as 77.8%; in data set [1] (second study) it was 77.7%. For the same compound, in data set [1] (first study, acute L-DOPA 3 mg/kg with 15 mg/kg benserazide), the “6-OHDA induced akinesia, forelimb use” value was “alleviated 6-OHDA induced akinesia by increasing the forelimb use”. The forelimb use result in data set [1] (second study, L-DOPA 3 mg/kg with 15 mg/kg benserazide HCl) is on record as “significantly increase the forelimb use”.
As for `O=C1CC2(CCCC2)CC(=O)N1CCCCN1CCN(c2ncccn2)CC1` [buspirone, 8-[4-(4-pyrimidin-2-ylpiperazin-1-yl)butyl]-8-azaspiro[4.5]decane-7,9-dione], the “L-DOPA-induced AIM (Total AIMs)” value in data set [2] (Example IV, FIG. 1, buspirone 1 mg/kg i.p. given alone) was “only partly reduced AIM”. For the same compound, the “L-DOPA-induced AIM (Total AIMs)” value in data set [2] (Example VII, FIG. 4, buspirone 0.5 mg/kg i.p. given alone) is given as “only partly reduced AIM”. In data set [2] (buspirone 0.25 and 0.5 mg/kg s.c. 25 min before test), the “L-DOPA-induced dyskinesia (AIMs)” value is given as “significantly reduced L-DOPA-induced dyskinesia”. For the same compound, in data set [3] (100 mg/day), the disability ratings result is “significant worsening of disability ratings” and the dyskinesia entry is given as “reduced dyskinesia”. In addition, in data set [3] (10-60 mg/day), the “effects on Parkinson's disease or dyskinesia” value is reported as “did not have any effects on Parkinson's disease or dyskinesia”.
In the case of `CCCC(C)C1(CC)C(=O)NC(=O)NC1=O` (stereo not shown) [pentobarbital], the “rotarod performance (time on the rod)” value in data set [4] is “significantly reduced time spend on the rotarod”. The “open field locomotor activity (total move distance)” value in data set [5] is “significantly reduced motor performance”.
Consider `O=C1[C@H]2CCCC[C@H]2C(=O)N1CCCCN1CCN(c2nsc3ccccc23)CC1` [perospirone, (3aR, 7aS)-2-{4-[4-(1,2-benzisothiazol-3-yl)piperazin-1-yl]butyl}hexahydro-1H-isoindole-1,3(2H)-dione], for which the involuntary movement result in data set [6] was “could reduce involuntary movement”.
For `Fc1ccc(-c2cncc(CNC[C@H]3CCc4ccccc4O3)c2)cc1` [sarizotan, 1-[(2R)-3,4-dihydro-2H-chromen-2-yl]-N-([5-(4-fluorophenyl)pyridin-3-yl]methyl)methanamine], the LID entry in data set [7] (phase 2A study and open labeled study) is “reduced LID”. For the same compound, in data set [7] (several large phase 2b studies), the “LID, effect compared to placebo” value is “no significant effects”.
With `O=C1[C@@H]2[C@@H]3CC[C@@H](C3)[C@@H]2C(=O)N1CCCCN1CCN(c2ncccn2)CC1` [tandospirone, (1R,2R,6S,7S)-4-{4-[4-(pyrimidin-2-yl)piperazin-1-yl]butyl}-4-azatricyclo[5.2.1.02,6]decane-3,5-dione], the “L-DOPA induced AIMs (Lim+Ax+OI)” value is “partially and briefly reduce AIMs” in data set [2] (tandospirone 1 mg/kg i.p. 30 min before test); “partially and briefly reduce AIMs” in data set [2] (tandospirone 2 mg/kg i.p. 30 min before test). For the same compound, the “L-DOPA-induced dyskinesia (AIMs)” value in data set [2] (tandospirone 1 and 2 mg/kg i.p. 25 min before test) is “significantly reduced L-DOPA-induced dyskinesia”.
For the compound `CN(C)CCc1c[nH]c2ccc(C[C@H]3COC(=O)N3)cc12` [zolmitriptan, (S)-4-({3-[2-(dimethylamino)ethyl]-1H-indol-5-yl}methyl)-1,3-oxazolidin-2-one], the “L-DOPA-induced AIM (Total AIMs)” value in data set [2] (Example IV, FIG. 1, zolmitriptan 10 mg/kg i.p. given alone) is reported as “did not reduce AIM”.
